Measurements from ChEMBL document CHEMBL3352484, “Modified 2,4-diaminopyrimidine-based dihydrofolate reductase inhibitors as potential drug scaffolds against Bacillus anthracis” (Bioorg Med Chem, 2015).
≈ marks a conversion by molar mass, not a printed value.

system: Bacillus anthracis; experiment: Antimicrobial activity against Bacillus anthracis assessed as growth inhibition measured as turbidity; format: functional

| SMILES | MIC [µg/mL] |
| --- | --- |
| CCCC1c2ccccc2C=NN1C(=O)/C=C/c1cc(C(=O)c2cnc(N)nc2N)cc(OC)c1OC (racemic) | > 128 |
| COc1cc(C(=O)c2cnc(N)nc2N)cc(/C=C/C(=O)N2N=Cc3ccccc3C2C=C(C)C)c1OC (racemic) | > 128 |
| CCCC1c2ccccc2C=NN1C(=O)/C=C/c1cc(Cc2cnc(N)nc2N)cc(OCC)c1OCC (racemic) | 4 (≈ 7.77 µM) |
| CCOc1cc(Cc2cnc(N)nc2N)cc(/C=C/C(=O)N2N=Cc3ccccc3C2C=C(C)C)c1OCC (racemic) | 1 (≈ 1.9 µM) |
| CCCC1c2ccccc2C=NN1C(=O)/C=C/c1cc(Cc2cnc(N)nc2N)cc(OC)c1OCC (racemic) | 2 (≈ 4 µM) |
| CCOc1c(/C=C/C(=O)N2N=Cc3ccccc3C2C=C(C)C)cc(Cc2cnc(N)nc2N)cc1OC (racemic) | 0.5 (≈ 0.975 µM) |
| CCCC1c2ccccc2C=NN1C(=O)/C=C/c1cc(Cc2cnc(N)nc2N)cc(OC)c1OCc1ccccc1 (racemic) | 4 (≈ 7.11 µM) |
| CCCC1c2ccccc2C=NN1C(=O)/C=C/c1cc(Cc2cnc(N)nc2N)cc2c1OCO2 (racemic) | 32 (≈ 68 µM) |
| CCCOc1cc(Cc2cnc(N)nc2N)cc(/C=C/C(=O)N2N=Cc3ccccc3C2CCC)c1OC (racemic) | 4 (≈ 7.77 µM) |
| CCCC1c2ccccc2C=NN1C(=O)/C=C/c1cc(Cc2cnc(N)nc2N)cc(OC(=O)c2ccccc2)c1OC (racemic) | 4 (≈ 6.94 µM) |
| CCCC1c2ccccc2C=NN1C(=O)/C=C/c1cc(Cc2cnc(N)nc2N)cc(OC(=O)c2ccc(OC)cc2)c1OC (racemic) | 8 (≈ 13.2 µM) |
| CCCC1c2ccccc2C=NN1C(=O)/C=C/c1cc(Cc2cnc(N)nc2N)cc(OC(=O)c2ccc([N+](=O)[O-])cc2)c1OC (racemic) | 8 (≈ 12.9 µM) |
| CCCC1c2ccccc2C=NN1C(=O)/C=C/c1cc(Cc2cnc(N)nc2N)cc(OC(=O)c2ccc(OC(F)(F)F)cc2)c1OC (racemic) | 8 (≈ 12.1 µM) |
| CCCC1c2ccccc2C=NN1C(=O)/C=C/c1cc(Cc2cnc(N)nc2N)cc(OCc2ccc(F)cc2)c1OC (racemic) | 8 (≈ 13.8 µM) |
| CCCC1c2ccccc2C=NN1C(=O)/C=C/c1cc(Cc2cnc(N)nc2N)cc(OCc2ccc(C(F)(F)F)cc2)c1OC (racemic) | 8 (≈ 12.7 µM) |
| COc1cc(Cc2cnc(N)nc2N)cc(OC)c1OC [TRIMETHOPRIM] | > 2050 |
